Data: patent US20210052701A1, “Methods of Treating Vascular Leakage Using CXCL12 Peptides” (The Medical College of Wisconsin, Inc., priority 2018, published 2021)
Entries after “also recorded” stand apart in the source; their conditions may differ.

Assays:
hPPAEC = assay: In vitro vascular permeability assay (FITC-dextran), hPPAEC monolayer, CXCR4/ACKR3 ligands without thrombin; assay type: cell-based, human; conditions: 50 nM ligand for 10 min, then FITC-dextran; no thrombin
Procedure: FIGS. 1A-1B show expression of CXCR4, ACKR3 and CXCR4:ACKR3 heteromers on hPPAEC and effects of CXCR4/ACKR3 ligands on hPPAEC monolayer permeability. (A) Detection of CXCR4, ACKR3 and CXCR4:ACKR3 heteromers on hPPAEC by PLA. Typical PLA images for the detection of individual receptors and CXCR4:ACKR3 heteromers. Images show merged PLA/40,6-diamidino-2-phenylindole dihydrochloride (DAPI) signals. Ctrl: Omission of one secondary antibody. (B) hPPAEC were grown to a confluent monolayer on collagen-coated permeable membranes. Cells were then exposed to vehicle or 50 nM of CXCR4/ACKR3 ligands for 10 minutes, as indicated, followed by the addition of FITC-dextran. Endothelial permeability was assessed by measuring the amount of FITC-dextran that permeated through the cell monolayer. N=3 in quadruplicate. No cells: 100% permeability, open squares. RFU: Relative fluorescence units. *: p<0.05 vs. vehicle (2-way ANOVA/Bonferroni's multiple comparison post hoc test).
Cells and cell lines—Human primary pulmonary artery endothelial cells (hPPAEC) (ATCC, PCS-100-022) and the human lung microvascular endothelial cell line HULEC-5a (ATCC, CRL-3244) were cultured in vascular cell basal medium (ATCC, PCS-100-030) with endothelial cell growth kit-VEGF (ATCC, PCS-100-041). The HTLA cell line, a HEK293 cell line stably expressing a tTA-dependent luciferase reporter and a β-arrestin2-TEV fusion gene, was generously provided by the laboratory of Dr. Bryan Roth and maintained in high glucose Dulbecco's Modified Eagle's Medium supplemented with 10% (vol/vol) FBS, 1× non-essential amino acids, 100 U/mL penicillin, 100 μg/mL streptomycin, 50 μg/mL hygromycin B, and 2 μg/mL puromycin. All cells were cultured at 37° C., 5% CO2 in a humidified atmosphere.
(§1) In vitro vascular permeability assays—Permeability assays were obtained from Millipore (ECM642) and performed as per manufacturer's instructions. In brief, 96-well collagen-coated permeability assay plates were pre-hydrated for 15 min, 5×10^5 cells were seeded on each well and grown to a confluent monolayer for 48 hours. Fluorescein isothiocyanate (FITC)-dextran (20 μg/mL) was then added on top of the monolayer and the amount of FITC-dextran that permeated through the monolayer was quantified by measuring fluorescence in a Synergy 2 Multi-mode Microplate Reader (BioTek, Winooski, Vt.) at various time points over a 255 min time period.

HULEC-5a = assay: Effects of CXCL12 and ubiquitin on thrombin-induced impairment of HULEC-5a monolayer permeability; assay type: cell-based, human; conditions: thrombin 50 nM, after 10 min 50 nM ligand
Procedure: FIGS. 4A-4D show effects of CXCL12 and ubiquitin on thrombin-induced impairment of HULEC-5a monolayer permeability. (A) HULEC-5a were grown to a confluent monolayer on collagen-coated permeable membranes and then exposed to different concentration of thrombin for 10 min, followed by the addition of FITC-dextran. Endothelial permeability was assessed by measuring the amount of FITC-dextran that permeated through the cell monolayer. No cells: 100% permeability. RFU: Relative fluorescence units. N=3 in quadruplicate. (B) Dose-response curves for thrombin-induced permeability, data from A. 100% permeability=permeability in the absence of HULEC-5a. Open squares: Permeability at t=55 min. Light grey squares: Permeability at t=135 min. Dark grey squares: Permeability at t=255 min. […] Endothelial permeability was assessed by measuring the amount of FITC-dextran that permeated through the cell monolayer. RFU: Relative fluorescence units. […]
as §1, with “In brief, 96-well collagen-coated permeability assay plates were pre-hydrated for 15 min, 5×10^5 cells were seeded on each well and grown to a confluent monolayer for 48 hours.” left out

CXCR4 = target: T1, CXCR4 (Homo sapiens, UniProt P61073); assay: Presto-Tango β-arrestin 2 recruitment assay for CXCR4; assay type: cell-based
T1 construct: host or cells: HTLA cells (HEK293 line stably expressing a tTA-dependent luciferase reporter and a β-arrestin2-TEV fusion gene)
T1 sequence (P61073 whole entry, the tested form may be a part): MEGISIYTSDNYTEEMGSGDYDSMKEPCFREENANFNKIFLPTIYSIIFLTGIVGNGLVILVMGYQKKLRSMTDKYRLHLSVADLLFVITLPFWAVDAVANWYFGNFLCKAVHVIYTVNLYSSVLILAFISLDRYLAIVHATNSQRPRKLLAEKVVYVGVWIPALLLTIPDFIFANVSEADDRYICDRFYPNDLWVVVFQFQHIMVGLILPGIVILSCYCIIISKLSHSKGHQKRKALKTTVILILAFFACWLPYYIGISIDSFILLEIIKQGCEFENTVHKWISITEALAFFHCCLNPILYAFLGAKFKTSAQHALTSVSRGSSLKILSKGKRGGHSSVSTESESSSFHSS
Procedure: FIGS. 6A-6F show Presto-Tango β-arrestin 2 recruitment assays for CXCR4 (A-C) and ACKR3 (D-F). RLU %: % of the luminescence signal for 1 μM CXCL12α. N=9 for CXCL12a and n=3 for all other proteins.
Presto-Tango β-arrestin 2 recruitment assay—The PRESTO-Tango (parallel receptorome expression and screening via transcriptional out-put, with transcriptional activation following arrestin translocation) assay was performed as recently described. The Tango plasmids were a gift from Dr. Bryan Roth (all from Addgene). HTLA cells (2.5×10^5/well) were seeded in a 6-well plate and transfected with 1.5 μg of the Tango plasmids using Lipofectamine 3000 (ThermoScientific). The following day, transfected HTLA cells (1×10^5 cells/well) were plated onto Poly-L-Lysine pre-coated 96-well micro-plates and allowed to attach to the plate surface for at least 4 hours prior to treatment. Proteins used for treatment were prepared in twice the final concentration in culture media, added at a 1:1 vol/vol ratio and incubated overnight at 37° C., 5% CO2 in a humidified environment. The following morning, media was removed from cell culture plates and replaced with a 100 μL 1:5 mixture of Bright-Glo (Promega) and 1×HBSS, 20 mM HEPES solution. Plates were then incubated at room temperature before measuring luminescence on a Biotek Synergy II plate reader.

Substance: CXCL12: Wild-type CXCL12 (SEQ ID NO:1), cognate agonist of CXCR4 and ACKR3
- effect on hPPAEC monolayer permeability (hPPAEC): enhanced hPPAEC barrier function
- effect on thrombin-mediated impairment of HULEC-5a barrier function when added after thrombin (HULEC-5a): significantly reduced thrombin-mediated impairment of endothelial cell barrier function; also recorded: less efficacious in HULEC-5a cells than in hPPAEC
- potency (EC50) to recruit β-arrestin 2 to CXCR4, compared with CXCL12α (CXCR4): no statistically significant differences
